The supplement of paper PMC5662764
± gives the standard deviation of the averaged measurements.

Legend:
Test in all cases: normalised growth rate inhibition (GR value) relative to DMSO control (GR (1 = untreated growth, 0 = cytostasis, <0 = cytotoxic)); higher = less growth inhibition
Conditions in all cases: 72 h
BT20 = tested on: BT20
Protocol: (§1)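 Breast cancer cell lines (BT-20, Hs 578T, MCF 10A, MCF7, MDA-MB-231, SK-BR-3) were plated in 384-well plates and treated 24 h later with drugs at six concentrations (0.04-10 µM). Viable cells were counted by Hoechst/dead-cell-stain imaging at 0 and 72 h. Counts were normalised to DMSO controls on the same plate to give the relative cell count and the growth-rate inhibition (GR) value; technical plate triplicates were averaged for each biological replicate.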

HS578T = tested on: HS578T
Protocol: as §1

MCF10A = tested on: MCF10A
Protocol: as §1

MCF7 = tested on: MCF7
Protocol: as §1

MDAMB231 = tested on: MDAMB231
Protocol: as §1

SKBR3 = tested on: SKBR3
Protocol: as §1

Structure (SMILES) | normalised growth rate inhibition (BT20; 0.04 µM) | normalised growth rate inhibition (BT20; 0.12 µM) | normalised growth rate inhibition (BT20; 0.37 µM) | normalised growth rate inhibition (BT20; 1.11 µM) | normalised growth rate inhibition (BT20; 3.33 µM) | normalised growth rate inhibition (BT20; 10 µM) | normalised growth rate inhibition (HS578T; 0.04 µM) | normalised growth rate inhibition (HS578T; 0.12 µM) | normalised growth rate inhibition (HS578T; 0.37 µM) | normalised growth rate inhibition (HS578T; 1.11 µM) | normalised growth rate inhibition (HS578T; 3.33 µM) | normalised growth rate inhibition (HS578T; 10 µM) | normalised growth rate inhibition (MCF10A; 0.04 µM) | normalised growth rate inhibition (MCF10A; 0.12 µM) | normalised growth rate inhibition (MCF10A; 0.37 µM) | normalised growth rate inhibition (MCF10A; 1.11 µM) | normalised growth rate inhibition (MCF10A; 3.33 µM) | normalised growth rate inhibition (MCF10A; 10 µM) | normalised growth rate inhibition (MCF7; 0.04 µM) | normalised growth rate inhibition (MCF7; 0.12 µM) | normalised growth rate inhibition (MCF7; 0.37 µM) | normalised growth rate inhibition (MCF7; 1.11 µM) | normalised growth rate inhibition (MCF7; 3.33 µM) | normalised growth rate inhibition (MCF7; 10 µM) | normalised growth rate inhibition (MDAMB231; 0.04 µM) | normalised growth rate inhibition (MDAMB231; 0.12 µM) | normalised growth rate inhibition (MDAMB231; 0.37 µM) | normalised growth rate inhibition (MDAMB231; 1.11 µM) | normalised growth rate inhibition (MDAMB231; 3.33 µM) | normalised growth rate inhibition (MDAMB231; 10 µM) | normalised growth rate inhibition (SKBR3; 0.04 µM) | normalised growth rate inhibition (SKBR3; 0.12 µM) | normalised growth rate inhibition (SKBR3; 0.37 µM) | normalised growth rate inhibition (SKBR3; 1.11 µM) | normalised growth rate inhibition (SKBR3; 3.33 µM) | normalised growth rate inhibition (SKBR3; 10 µM)
CCOc1cc2ncc(C#N)c(Nc3ccc(F)c(Cl)c3)c2cc1NC(=O)/C=C/CN(C)C [pelitinib] | 0.966 ± 0.066 | 0.877 ± 0.099 | 0.7676 ± 0.006 | 0.697 ± 0.037 | 0.594 ± 0.13 | -0.241 ± 0.14 | 0.9931 ± 0.0014 | 0.956 ± 0.052 | 0.841 ± 0.042 | 0.79 ± 0.035 | 0.569 ± 0.33 | -0.122 ± 0.026 | 0.542 ± 0.25 | 0.267 ± 0.27 | 0.115 ± 0.042 | 0.129 ± 0.04 | 0.111 ± 0.042 | -0.017 ± 0.046 | 1.06 ± 0.061 | 1.03 ± 0.12 | 0.935 ± 0.068 | 0.763 ± 0.14 | 0.33 ± 0.14 | -0.164 ± 0.085 | 1.05 ± 0.042 | 1.03 ± 0.051 | 0.88 ± 0.043 | 0.75 ± 0.11 | 0.318 ± 0.18 | -0.143 ± 0.073 | 0.618 ± 0.21 | 0.332 ± 0.21 | -0.0906 ± 0.18 | -0.0946 ± 0.17 | -0.052 ± 0.16 | -0.227 ± 0.096
C[C@@H]1C[C@H]2O[C@@H]2/C=C\C=C\C(=O)Cc2c(Cl)c(O)cc(O)c2C(=O)O1 [radicicol] | 0.839 ± 0.08 | 0.395 ± 0.11 | 0.115 ± 0.088 | -0.0176 ± 0.13 | -0.0598 ± 0.11 | -0.163 ± 0.097 | 1.029 ± 0.01 | 0.95 ± 0.091 | 0.704 ± 0.27 | 0.321 ± 0.19 | 0.0951 ± 0.08 | 0.049 ± 0.12 | 0.886 ± 0.075 | 0.598 ± 0.21 | 0.299 ± 0.15 | 0.104 ± 0.021 | -0.0227 ± 0.054 | -0.182 ± 0.1 | 0.574 ± 0.059 | 0.262 ± 0.033 | 0.124 ± 0.04 | 0.123 ± 0.036 | 0.115 ± 0.035 | -0.0962 ± 0.041 | 1.06 ± 0.035 | 0.744 ± 0.084 | 0.298 ± 0.12 | 0.0741 ± 0.12 | 0.0054 ± 0.14 | -0.0299 ± 0.12 | 0.329 ± 0.053 | 0.0873 ± 0.083 | 0.0279 ± 0.1 | -0.0112 ± 0.14 | -0.0134 ± 0.1 | -0.166 ± 0.053
CC[C@H](CO)Nc1nc(NCc2ccccc2)c2ncn(C(C)C)c2n1 [roscovitine] | 1.022 ± 0.0042 | 0.9967 ± 0.0034 | 0.913 ± 0.029 | 0.844 ± 0.084 | 0.759 ± 0.062 | 0.197 ± 0.044 | 1.009 ± 0.01 | 1.01 ± 0.016 | 0.975 ± 0.011 | 0.954 ± 0.034 | 0.95 ± 0.054 | 0.688 ± 0.062 | 0.9943 ± 0.0068 | 0.9805 ± 0.0066 | 0.9621 ± 0.0088 | 0.955 ± 0.014 | 0.926 ± 0.025 | 0.439 ± 0.19 | 1.07 ± 0.066 | 1.02 ± 0.024 | 0.922 ± 0.048 | 0.818 ± 0.068 | 0.717 ± 0.087 | -0.102 ± 0.15 | 1.03 ± 0.035 | 0.971 ± 0.03 | 0.926 ± 0.03 | 0.88 ± 0.033 | 0.811 ± 0.077 | 0.401 ± 0.068 | 1.04 ± 0.093 | 1.04 ± 0.045 | 0.979 ± 0.085 | 0.852 ± 0.043 | 0.677 ± 0.023 | 0.146 ± 0.18
N#CC[C@H](C1CCCC1)n1cc(-c2ncnc3[nH]ccc23)cn1 [ruxolitinib] | 0.973 ± 0.066 | 0.942 ± 0.019 | 0.95 ± 0.046 | 0.973 ± 0.08 | 0.933 ± 0.087 | 0.707 ± 0.074 | 0.9891 ± 0.0054 | 0.985 ± 0.039 | 0.973 ± 0.023 | 0.9536 ± 0.0035 | 0.901 ± 0.021 | 0.693 ± 0.031 | 0.9818 ± 0.0081 | 0.9898 ± 0.007 | 0.978 ± 0.011 | 0.956 ± 0.019 | 0.948 ± 0.021 | 0.828 ± 0.039 | 0.967 ± 0.062 | 0.948 ± 0.047 | 0.963 ± 0.042 | 1.05 ± 0.038 | 1.05 ± 0.027 | 0.778 ± 0.075 | 0.938 ± 0.065 | 0.922 ± 0.052 | 0.933 ± 0.087 | 0.95 ± 0.069 | 0.95 ± 0.043 | 0.673 ± 0.26 | 0.882 ± 0.12 | 0.903 ± 0.098 | 0.922 ± 0.086 | 0.918 ± 0.057 | 0.958 ± 0.084 | 0.81 ± 0.18
CN1CCN(CCOc2cc(OC3CCOCC3)c3c(Nc4c(Cl)ccc5c4OCO5)ncnc3c2)CC1 [saracatinib] | 0.993 ± 0.057 | 0.944 ± 0.024 | 0.877 ± 0.032 | 0.785 ± 0.06 | 0.621 ± 0.11 | 0.26 ± 0.07 | 0.9858 ± 0.0065 | 0.92 ± 0.039 | 0.828 ± 0.043 | 0.697 ± 0.088 | 0.609 ± 0.089 | 0.339 ± 0.092 | 1.012 ± 0.0071 | 0.9684 ± 0.0069 | 0.906 ± 0.045 | 0.745 ± 0.12 | 0.534 ± 0.14 | 0.108 ± 0.033 | 0.854 ± 0.055 | 0.661 ± 0.12 | 0.43 ± 0.2 | 0.323 ± 0.27 | 0.228 ± 0.26 | 0.266 ± 0.21 | 0.862 ± 0.075 | 0.704 ± 0.086 | 0.587 ± 0.065 | 0.51 ± 0.09 | 0.489 ± 0.12 | 0.348 ± 0.11 | 1.15 ± 0.098 | 1.12 ± 0.1 | 1 ± 0.07 | 0.916 ± 0.08 | 0.763 ± 0.057 | 0.207 ± 0.11
Cn1cnc2c(F)c(Nc3ccc(Br)cc3Cl)c(C(=O)NOCCO)cc21 [selumetinib] | 1.11 ± 0.084 | 1.03 ± 0.099 | 0.999 ± 0.059 | 1.01 ± 0.061 | 0.974 ± 0.093 | 0.975 ± 0.081 | 0.636 ± 0.094 | 0.53 ± 0.1 | 0.471 ± 0.068 | 0.428 ± 0.055 | 0.369 ± 0.036 | 0.26 ± 0.056 | 0.598 ± 0.026 | 0.455 ± 0.053 | 0.36 ± 0.056 | 0.281 ± 0.053 | 0.25 ± 0.041 | 0.177 ± 0.042 | 0.867 ± 0.13 | 0.696 ± 0.071 | 0.568 ± 0.062 | 0.543 ± 0.072 | 0.575 ± 0.063 | 0.524 ± 0.024 | 0.846 ± 0.078 | 0.702 ± 0.097 | 0.545 ± 0.088 | 0.458 ± 0.068 | 0.36 ± 0.068 | 0.2 ± 0.083 | 1.139 ± 0.0015 | 1.037 ± 0.0086 | 1.044 ± 0.0095 | 1.02 ± 0.052 | 1.02 ± 0.033 | 0.969 ± 0.034
CO[C@H]1C[C@@H]2CC[C@@H](C)[C@@](O)(O2)C(=O)C(=O)N2CCCC[C@H]2C(=O)O[C@H]([C@H](C)C[C@@H]2CC[C@@H](O)[C@H](OC)C2)CC(=O)[C@H](C)/C=C(\C)[C@@H](O)[C@@H](OC)C(=O)[C@H](C)C[C@H](C)/C=C/C=C/C=C/1C [sirolimus] | 0.54 ± 0.03 | 0.514 ± 0.062 | 0.522 ± 0.056 | 0.524 ± 0.067 | 0.536 ± 0.061 | 0.587 ± 0.043 | 0.629 ± 0.089 | 0.619 ± 0.048 | 0.619 ± 0.055 | 0.632 ± 0.072 | 0.621 ± 0.066 | 0.62 ± 0.09 | 0.982 ± 0.074 | 0.999 ± 0.069 | 0.995 ± 0.082 | 0.997 ± 0.077 | 1 ± 0.089 | 0.986 ± 0.087 | 0.502 ± 0.075 | 0.502 ± 0.07 | 0.486 ± 0.048 | 0.49 ± 0.08 | 0.495 ± 0.048 | 0.456 ± 0.096 | 0.802 ± 0.049 | 0.781 ± 0.039 | 0.812 ± 0.048 | 0.787 ± 0.042 | 0.784 ± 0.07 | 0.8 ± 0.087 | 0.47 ± 0.069 | 0.449 ± 0.056 | 0.405 ± 0.12 | 0.389 ± 0.09 | 0.366 ± 0.082 | 0.353 ± 0.1
